Experimental data taken from patent US11976083B2, “Inhibitors of peptidylarginine deiminases” (Gilead Sciences, Inc., priority 2020, dated 2024).

biological target: T1, human PAD4 (Homo sapiens, UniProt Q9UM07); test: In vitro PAD4 BAEE biochemical assay; details: BAEE substrate 3 mM, 5 nM PAD4, 2 mM calcium chloride; geometric mean of multiple experiments
T1 construct: human PAD4 (NM_012387), A2-P663, was PCR amplified; His-SUMO (N, cleaved yes); made in house; host or cells: E. coli BL21(DE3)
T1 sequence (Q9UM07 2-663): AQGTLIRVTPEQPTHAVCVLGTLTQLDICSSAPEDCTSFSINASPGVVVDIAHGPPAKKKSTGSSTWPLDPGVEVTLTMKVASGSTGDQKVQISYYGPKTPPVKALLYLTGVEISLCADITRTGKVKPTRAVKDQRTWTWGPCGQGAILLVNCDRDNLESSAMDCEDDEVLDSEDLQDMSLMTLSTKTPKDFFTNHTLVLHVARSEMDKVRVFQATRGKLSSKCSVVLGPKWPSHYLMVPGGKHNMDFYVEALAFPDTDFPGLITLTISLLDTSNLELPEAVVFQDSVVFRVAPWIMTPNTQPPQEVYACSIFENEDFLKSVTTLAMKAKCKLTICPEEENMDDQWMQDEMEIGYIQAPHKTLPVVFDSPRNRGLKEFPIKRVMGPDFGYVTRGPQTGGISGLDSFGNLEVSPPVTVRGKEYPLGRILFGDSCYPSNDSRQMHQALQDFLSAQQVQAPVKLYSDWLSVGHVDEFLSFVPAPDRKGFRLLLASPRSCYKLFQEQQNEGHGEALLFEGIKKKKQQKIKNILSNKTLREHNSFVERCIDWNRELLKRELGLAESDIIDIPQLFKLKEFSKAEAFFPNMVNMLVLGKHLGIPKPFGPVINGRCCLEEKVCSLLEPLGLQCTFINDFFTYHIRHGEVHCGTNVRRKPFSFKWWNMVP
Outline: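 PAD4 5 nM, CaCl2 2 mM, BAEE 3 mM final; 50 mM MOPS pH 7.6, 50 mM NaCl, 0.05% Tween-20, 2 mM DTT. Cpd + enzyme 30 min 25 °C; substrate 2 h 25 °C; EDTA stop; OPA detection 1 h. IC50 4-parameter fit.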

SMILES | IC50
CCc1c(-c2cc3ccc4nc3n2CCCCCCCC(=O)N[C@@H]4C)nn2cc(C(=O)N3[C@H]4CC[C@@H]3[C@H](N)C4)ccc12 [Example 252, 17-[5-[(1˜{R},2˜{R},4˜{S})-2-amino-7-azabicyclo[2.2.1]heptane-7-carbonyl]-3-ethylpyrazolo[1,5-a]pyridin-2-yl]-11-methyl-1,10,19-triazatricyclo[10.5.2.0^{15,18}]nonadeca-12(19),13,15(18),16-tetraen-9-one] | 45 nM
COc1cc(C(=O)N2[C@H]3CC[C@@H]2[C@H](N)C3)cc2nc(-c3cc4ccc5nc4n3CCCCCCC(C)(C)C(=O)N[C@@H]5C)n(C3CC3)c12 [Example 253, (11~{R})-17-[5-[(1~{R},2~{R},4~{S})-2-amino-7-azabicyclo[2.2.1]heptane-7-carbonyl]-1-cyclopropyl-7-methoxy-benzimidazol-2-yl]-8,8,11-trimethyl-1,10,19-triazatricyclo[10.5.2.0^{15,18}]nonadeca-12(19),13,15(18),16-tetraen-9-one] | 103 nM
COc1cc(C(=O)N2[C@H]3CC[C@@H]2[C@H](N)C3)cc2nc(-c3cc4ccc5nc4n3CCCCCCC(=O)N[C@@H]5C)n(C3CC3)c12 [Example 254, (10~{R})-16-[5-[(1~{R},2~{R},4~{S})-2-amino-7-azabicyclo[2.2.1]heptane-7-carbonyl]-1-cyclopropyl-7-methoxy-benzimidazol-2-yl]-10-methyl-1,9,18-triazatricyclo[9.5.2.0^{14,17}]octadeca-11(18),12,14(17),15-tetraen-8-one] | 32 nM
COc1cc(C(=O)N2[C@H]3CC[C@@H]2[C@H](N)C3)cc2nc(-c3cc4ccc5nc4n3CCCCCCCC(=O)NC5)n(C)c12 [Example 255, 17-[5-[(1~{R},2~{R},4~{S})-2-amino-7-azabicyclo[2.2.1]heptane-7-carbonyl]-7-methoxy-1-methyl-benzimidazol-2-yl]-1,10,19-triazatricyclo[10.5.2.0^{15,18}]nonadeca-12(19),13,15(18),16-tetraen-9-one] | 59 nM
COc1cc(C(=O)N2[C@H]3CC[C@@H]2[C@H](N)C3)cc2nc(-c3cc4ccc5nc4n3CCCCCCCC(=O)N(C)C5)n(C)c12 [Example 256, 17-[5-[(1~{R},2~{R},4~{S})-2-amino-7-azabicyclo[2.2.1]heptane-7-carbonyl]-7-methoxy-1-methyl-benzimidazol-2-yl]-10-methyl-1,10,19-triazatricyclo[10.5.2.0^{15,18}]nonadeca-12(19),13,15(18),16-tetraen-9-one] | 48 nM
COc1cc(C(=O)N2[C@H]3CC[C@@H]2[C@H](N)C3)cc2nc(-c3cc4ccc5nc4n3CCCCCCCC(=O)N[C@H]5C(F)(F)F)n(C)c12 [Example 257, (11~{R})-17-[5-[(1~{R},2~{R},4~{S})-2-amino-7-azabicyclo[2.2.1]heptane-7-carbonyl]-7-methoxy-1-methyl-benzimidazol-2-yl]-11-(trifluoromethyl)-1,10,19-triazatricyclo[10.5.2.0^{15,18}]nonadeca-12(19),13,15(18),16-tetraen-9-one] | 2470 nM
COc1cc(C(=O)N2[C@H]3CC[C@@H]2[C@H](N)C3)cc2nc(-c3cc4ccc5nc4n3CCCCCCCC(=O)N[C@@H]5C(F)(F)F)n(C)c12 [Example 258, (11~{S})-17-[5-[(1~{R},2~{R},4~{S})-2-amino-7-azabicyclo[2.2.1]heptane-7-carbonyl]-7-methoxy-1-methyl-benzimidazol-2-yl]-11-(trifluoromethyl)-1,10,19-triazatricyclo[10.5.2.0^{15,18}]nonadeca-12(19),13,15(18),16-tetraen-9-one] | 39 nM
COc1cc(C(=O)N2[C@H]3CC[C@@H]2[C@H](N)C3)cc2nc(-c3cc4ccc5nc4n3CCCCCCCC(=O)NC5C3CC3)n(C)c12 (some centres unmarked) [Example 259, 17-[5-[(1˜{R},2˜{R},4˜{S})-2-amino-7-azabicyclo[2.2.1]heptane-7-carbonyl]-7-methoxy-1-methyl-benzimidazol-2-yl]-11-cyclopropyl-1,10,19-triazatricyclo[10.5.2.0^{15,18}]nonadeca-12(19),13,15(18),16-tetraen-9-one] | 37 nM
COc1cc(C(=O)N2CC[C@H]3CCCN[C@H]3C2)cc2nc(-c3cc4ccc5nc4n3CCCCCCC3(CC3)C(=O)N[C@@H]5C)n(C)c12 [Example 260, (11~{R})-17-[5-[(4~{a}~{R},8~{a}~{R})-2,3,4,4~{a},5,6,8,8~{a}-octahydro-1~{H}-1,7-naphthyridine-7-carbonyl]-7-methoxy-1-methyl-benzimidazol-2-yl]-11-methyl-spiro[1,10,19-triazatricyclo[10.5.2.0^{15,18}]nonadeca-12(19),13,15(18),16-tetraene-8,1′-cyclopropane]-9-one] | 453 nM
COc1cc(C(=O)N2CCC[C@@H](N)C2)cc2nc(-c3cc4ccc5nc4n3CCCCCCC3(CCC3)C(=O)N[C@@H]5C)n(C)c12 [Example 263, (11~{R})-17-[5-[(3~{R})-3-aminopiperidine-1-carbonyl]-7-methoxy-1-methyl-benzimidazol-2-yl]-11-methyl-spiro[1,10,19-triazatricyclo[10.5.2.0^{15,18}]nonadeca-12(19),13,15(18),16-tetraene-8,1′-cyclobutane]-9-one] | 69 nM
COc1cc(C(=O)N2CCC[C@@H](N)C2)cc2nc(-c3cc4ccc5nc4n3C[C@@H]3C[C@H]3C(OC)CCCC(=O)N[C@@H]5C)n(C)c12 (some centres unmarked) [Example 264, (3~{R},5~{R},12~{R})-18-[5-[(3~{R})-3-aminopiperidine-1-carbonyl]-7-methoxy-1-methyl-benzimidazol-2-yl]-6-methoxy-12-methyl-1,11,20-triazatetracyclo[11.5.2.0^{3,5}.0^{16,19}] icosa-13(20),14,16(19),17-tetraen-10-one] | 91 nM
COc1cc(C(=O)N2CCC[C@@H](N)C2)cc2nc(-c3cc4ccc5nc4n3C[C@@H]3C[C@H]3COC[C@@H](C)C(=O)N[C@@H]5C)n(C)c12 [Example 265, (5~{R},9~{R},12~{R})-18-[5-[(3~{R})-3-aminopiperidine-1-carbonyl]-7-methoxy-1-methyl-benzimidazol-2-yl]-9,12-dimethyl-7-oxa-1,11,20-triazatetracyclo[11.5.2.0^{3,5}.0^{16,19}] icosa-13(20),14,16(19),17-tetraen-10-one] | 81 nM
COc1cc(C(=O)N2CCC[C@@H](N)C2)cc2nc(-c3cc4ccc5nc4n3C[C@@H]3C[C@H]3COC[C@H](C)C(=O)N[C@@H]5C)n(C)c12 [Example 266, (5~{R},9~{S},12~{R})-18-[5-[(3~{R})-3-aminopiperidine-1-carbonyl]-7-methoxy-1-methyl-benzimidazol-2-yl]-9,12-dimethyl-7-oxa-1,11,20-triazatetracyclo[11.5.2.0^{3,5}.0^{16,19}] icosa-13(20),14,16(19),17-tetraen-10-one] | 153 nM
COc1cc(C(=O)N2CCC[C@@H](N)C2)cc2nc(-c3cc4ccc5nc4n3C[C@@H]3C[C@H]3CO[C@@H](C)CC(=O)N[C@@H]5C)n(C)c12 [Example 267, (5~{R},8~{S},12~{R})-18-[5-[(3~{R})-3-aminopiperidine-1-carbonyl]-7-methoxy-1-methyl-benzimidazol-2-yl]-8,12-dimethyl-7-oxa-1,11,20-triazatetracyclo[11.5.2.0^{3,5}.0^{16,19}] icosa-13(20),14,16(19),17-tetraen-10-one] | 88 nM
